Test results: patent US11084818B2 (HEPO PHARMACEUTICAL CO., LTD., priority 2016, dated 2021)

Tests used:
hTLR7 = biological target: T1, hTLR7 (Homo sapiens, UniProt Q9NYK1); assay: Activation activity test of hTLR7 (HEK-Blue hTLR7 cells, QUANTI-Blue OD650); assay type: cell-based; details: 24 hours incubation, read-out: TLR7 (EC50)
T1 construct: host or cells: HEK-Blue hTLR7 (HEK293-derived reporter line)
T1 sequence (Q9NYK1 27-1049): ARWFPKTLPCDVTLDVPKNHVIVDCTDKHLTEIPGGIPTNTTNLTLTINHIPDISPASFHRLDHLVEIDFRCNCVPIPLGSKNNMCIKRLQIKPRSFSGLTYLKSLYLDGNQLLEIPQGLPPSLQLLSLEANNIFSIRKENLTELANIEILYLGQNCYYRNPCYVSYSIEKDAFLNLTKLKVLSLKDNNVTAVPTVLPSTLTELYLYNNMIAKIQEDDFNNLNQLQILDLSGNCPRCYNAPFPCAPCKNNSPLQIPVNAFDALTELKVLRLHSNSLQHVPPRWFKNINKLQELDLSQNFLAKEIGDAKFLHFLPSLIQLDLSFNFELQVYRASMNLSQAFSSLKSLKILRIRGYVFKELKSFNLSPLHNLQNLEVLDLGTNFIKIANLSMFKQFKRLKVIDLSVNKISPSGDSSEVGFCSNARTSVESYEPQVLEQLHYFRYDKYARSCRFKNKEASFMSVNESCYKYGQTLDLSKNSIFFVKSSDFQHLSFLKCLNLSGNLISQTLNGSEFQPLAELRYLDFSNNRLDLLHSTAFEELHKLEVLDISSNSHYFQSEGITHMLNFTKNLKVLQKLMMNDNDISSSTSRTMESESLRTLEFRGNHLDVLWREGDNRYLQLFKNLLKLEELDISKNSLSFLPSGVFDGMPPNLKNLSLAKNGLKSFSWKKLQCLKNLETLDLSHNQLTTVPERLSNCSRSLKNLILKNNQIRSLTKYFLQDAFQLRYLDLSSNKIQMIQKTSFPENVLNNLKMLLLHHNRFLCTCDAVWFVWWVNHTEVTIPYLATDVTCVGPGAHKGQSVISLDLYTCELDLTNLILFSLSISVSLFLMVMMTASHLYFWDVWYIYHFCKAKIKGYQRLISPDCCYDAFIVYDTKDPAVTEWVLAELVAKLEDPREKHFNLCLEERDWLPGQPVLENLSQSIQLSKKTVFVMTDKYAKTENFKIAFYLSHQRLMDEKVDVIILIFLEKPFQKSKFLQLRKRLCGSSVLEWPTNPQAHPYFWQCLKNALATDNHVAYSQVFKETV
Procedure: (§1) Effect Example 1: Activation Activity Test of hTLR7 and hTLR8
(§2) Cell lines: HEK-Blue™ hTLR7 and HEK-Blue™ hTLR8 (InvivoGen Co.)
(§3) Primary reagents: QUANTI-Blue™ (InvivoGen) and ATPlite 1 Step (PerkinElmer)
(§4) Primary instruments: Automatic Liquid Handling Workstation (Labcyte, Model: Echo), Cell Counter (Countstar, IC1000) and Multifunctional Enzyme Marker (Molecular Device, Flexstation III).
(§5) 2.1 The tested compounds were formulated into a 60 mM concentrated stock solution in DMSO and stored in a nitrogen cabinet.
(§6) 2.3 The T150 cultured cells were taken out from the CO2 incubator and the cell culture supernatant was discarded. The cells were washed with PBS once, followed by addition of about 10 mL of the culture solution. The cells were dissociated by patting the cell culture flask, and gently blown to even by a pipette.
(§7) The cells were counted, and the cell suspension was adjusted to 200,000 cells/mL by the culture solution. Thereafter, 200 μL of diluted cells was added to each well in a 96-well plate containing the compound (40,000 cells/well).
(§8) 2.4 The compounds and cells were incubated in a 5% CO2 incubator at 37° C. for 24 hours.
(§9) 2.5 Compound activity assay: 20 μl of the cell supernatant of each well after induction was added to a cell culture plate containing 180 μL of reagent QUANTI-Blue™, and incubated at 37° C. for 1.5 hours. Thereafter, the optical density absorption (OD650) of each well at 650 nm was measured using a Multifunctional Enzyme Marker: Flexstation III.
(§10) 2.6 Compound Activity: OD650 values were analyzed using GraphPad Prism software and the dose-response curves for the compound were fitted to calculate the EC50 values of the compound.

hTLR8 = biological target: T2, hTLR8 (Homo sapiens, UniProt Q9NR97); assay: Activation activity test of hTLR8 (HEK-Blue hTLR8 cells, QUANTI-Blue OD650); assay type: cell-based; details: HEK-Blue hTLR8 cells, 24 hours incubation; read-out: TLR8 (EC50)
T2 construct: host or cells: HEK-Blue hTLR8 (HEK293-derived reporter line)
T2 sequence (Q9NR97 27-1041): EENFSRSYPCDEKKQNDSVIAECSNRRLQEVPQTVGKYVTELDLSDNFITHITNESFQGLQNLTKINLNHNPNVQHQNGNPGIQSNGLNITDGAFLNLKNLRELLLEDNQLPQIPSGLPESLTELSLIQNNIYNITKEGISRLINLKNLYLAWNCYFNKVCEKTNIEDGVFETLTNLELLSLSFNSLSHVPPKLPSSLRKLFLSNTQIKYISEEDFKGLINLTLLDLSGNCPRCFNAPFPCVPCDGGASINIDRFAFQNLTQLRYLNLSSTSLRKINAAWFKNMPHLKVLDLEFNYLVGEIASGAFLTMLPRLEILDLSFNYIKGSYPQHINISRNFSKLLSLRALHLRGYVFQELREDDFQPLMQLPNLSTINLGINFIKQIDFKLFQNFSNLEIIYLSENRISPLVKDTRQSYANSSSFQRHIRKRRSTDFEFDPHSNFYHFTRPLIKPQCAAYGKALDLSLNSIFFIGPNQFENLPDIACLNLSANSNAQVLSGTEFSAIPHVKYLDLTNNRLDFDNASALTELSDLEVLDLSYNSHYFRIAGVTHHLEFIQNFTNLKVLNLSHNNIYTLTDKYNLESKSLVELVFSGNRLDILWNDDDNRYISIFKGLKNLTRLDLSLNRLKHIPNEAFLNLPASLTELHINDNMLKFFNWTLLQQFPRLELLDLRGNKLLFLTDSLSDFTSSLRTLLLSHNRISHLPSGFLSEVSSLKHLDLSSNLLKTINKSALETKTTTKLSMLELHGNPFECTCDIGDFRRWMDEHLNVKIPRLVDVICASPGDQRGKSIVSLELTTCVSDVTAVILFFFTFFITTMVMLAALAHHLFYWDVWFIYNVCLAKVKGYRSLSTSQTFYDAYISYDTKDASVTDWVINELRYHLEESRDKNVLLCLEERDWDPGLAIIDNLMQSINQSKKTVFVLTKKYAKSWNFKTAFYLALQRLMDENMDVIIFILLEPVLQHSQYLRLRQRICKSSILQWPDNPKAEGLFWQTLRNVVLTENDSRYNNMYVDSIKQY
Procedure: as §1, §2, §3, §4, §5, §6, §7, §8, §9, §10

| Structure (SMILES) | EC50 (hTLR7) [µM] | EC50 (hTLR8) [µM] |
| --- | --- | --- |
| O=c1[nH]c2cnc(OCCOCC(F)(F)F)nc2n1Cc1ccc(CN2CCCC2)cc1 [Example 48, 9-(4-(pyrrolidin-1-ylmethyl)benzyl)-2-(2-(2,2,2-trifluoroethoxy)ethoxy)-7,9-dihydro-8H-purin-8-one] | 0.001 to 1 | > 100 |
| COCCOc1ncc2[nH]c(=O)n(Cc3ccc(CN4CC[C@@H](O)C4)cc3)c2n1 [Example 6, (R)-9-(4-((3-hydroxypyrrolidin-1-yl)methyl)benzyl)-2-(2-methoxyethoxy)-7,9-dihydro-8H-purin-8-one] | 10 to 100 | > 100 |
| O=c1[nH]c2cnc(OCCC3CC3)nc2n1Cc1cccc(CN2CCCC2)c1 [Example 29, 2-(2-cyclopropylethoxy)-9-(3-(pyrrolidin-1-ylmethyl)benzyl)-7,9-dihydro-8H-purin-8-one] | > 100 | > 100 |
| COCCOc1ncc2[nH]c(=O)n(Cc3cccc(CN4CCC[C@@H]4C(=O)OC)c3)c2n1 [Example 23, methyl (3-((2-(2-methoxyethoxy)-8-oxo-7,8-dihydro-9H-purin-9-yl)methyl)benzyl)-D-pyrrolidine-2-carboxylate] | 10 to 100 | > 100 |
| COCCOc1ncc2[nH]c(=O)n(Cc3ccc(CN4CC[C@@H](F)C4)cc3)c2n1 [Example 5, (R)-9-(4-((3-fluoropyrrolidin-1-yl)methyl)benzyl)-2-(2-methoxyethoxy)-7,9-dihydro-8H-purin-8-one] | 1 to 10 | > 100 |
| COCCOCCOc1ncc2[nH]c(=O)n(Cc3cccc(CN4CCCC4)c3)c2n1 [Example 30, 2-(2-(2-methoxyethoxy)ethoxy)-9-(3-(pyrrolidin-1-ylmethyl)benzyl)-7,9-dihydro-8H-purin-8-one] | > 100 | > 100 |
| COCCOc1ncc2[nH]c(=O)n(Cc3ccc(CN4CCC(F)(F)C4)cc3)c2n1 [Example 54, 9-(4-((3,3-difluoropyrrolidin-1-yl)methyl)benzyl)-2-(2-methoxyethoxy)-7,9-dihydro-8H-purin-8-one] | 10 to 100 | > 100 |
| COCCOc1ncc2[nH]c(=O)n(Cc3ccc(C(C)N4CCCCC4)cc3)c2n1 (stereo not drawn) [Example 15, 2-(2-methoxyethoxy)-9-(4-(1-(piperidin-1-yl)ethyl)benzyl)-7,9-dihydro-8H-purin-8-one] | 0.001 to 1 | > 100 |
| COCCOc1ncc2[nH]c(=O)n(Cc3ccc(CN4CCCC4)cc3F)c2n1 [Example 63, 2-(2-methoxyethoxy)-9-(2-fluoro-4-(pyrrolidin-1-ylmethyl)benzyl)-7,9-dihydro-8H-purin-8-one] | 1 to 10 | > 100 |
| COCCOc1ncc2[nH]c(=O)n(Cc3cccc(CN4CC[C@@H](F)C4)c3)c2n1 [Example 22, (R)-9-(3-((3-fluoropyrrolidin-1-yl)methyl)benzyl)-2-(2-methoxyethoxy)-7,9-dihydro-8H-purin-8-one] | 10 to 100 | > 100 |
| COCCOc1ncc2[nH]c(=O)n(Cc3ccc(CN4CC5CCC4C5)cc3)c2n1 (stereo not drawn) [Example 13, 2-(2-methoxyethoxy)-9-(4-((2-aza-bicyclo[2,2,1]heptan-2-yl)methyl)benzyl)-7,9-dihydro-8H-purin-8-one] | 1 to 10 | > 100 |

The next lines start with the values.

| EC50 (hTLR7) [µM] | EC50 (hTLR8) [µM] | Structure (SMILES) |
| --- | --- | --- |
| > 100 | > 100 | COCCOc1ncc2nc(C)n(Cc3ccc(CN4CCCC4)cc3)c2n1 [Example 59, 2-(2-methoxyethoxy)-8-methyl-9-(4-(pyrrolidin-1-ylmethyl)benzyl)-9H-purine] |
| 1 to 10 | > 100 | COCCOc1ncc2[nH]c(=O)n(Cc3ccc(CN4CCCCCC4)cc3)c2n1 [Example 4, 2-(2-methoxyethoxy)-9-(4-(azepan-1-ylmethyl)benzyl)-7,9-dihydro-8H-purin-8-one] |
| 10 to 100 | > 100 | O=c1[nH]c2cnc(OCCO)nc2n1Cc1ccc(CN2CCCC2)cc1 [Example 38, 2-(2-hydroxyethoxy)-9-(4-(pyrrolidin-1-ylmethyl)benzyl)-7,9-dihydro-8H-purin-8-one] |
| 10 to 100 | > 100 | COCCOc1ncc2[nH]c(=O)n(Cc3ccc(CN4CCC4)cc3)c2n1 [Example 2, 2-(2-methoxyethoxy)-9-(4-(azetidin-1-ylmethyl)benzyl)-7,9-dihydro-8H-purin-8-one] |
| 1 to 10 | > 100 | CCOCCOc1ncc2[nH]c(=O)n(Cc3ccc(CN4CCCC4)cc3)c2n1 [Example 37, 2-(2-ethoxyethoxy)-9-(4-(pyrrolidin-1-ylmethyl)benzyl)-7,9-dihydro-8H-purin-8-one] |
| 10 to 100 | > 100 | COCCOc1nc(F)c2[nH]c(=O)n(Cc3ccc(CN4CCCC4)cc3)c2n1 [Example 70, 6-fluoro-2-(2-methoxyethoxy)-9-(4-(pyrrolidin-1-ylmethyl)benzyl)-7,9-dihydro-8H-purin-8-one] |
| 1 to 10 | > 100 | COCCOc1ncc2[nH]c(=O)n(Cc3cccc(CN4CCCC4)c3)c2n1 [Example 18] |
| 10 to 100 | > 100 | COCCOc1cc2c(cn1)[nH]c(=O)n2Cc1ccc(CN2CCCC2)cc1 [Example 39, 6-(2-methoxyethoxy)-1-(4-(pyrrolidin-1-ylmethyl)benzyl)-1,3-dihydro-2H-imidazole-[4,5-c]pyridin-2-one] |
| 10 to 100 | > 100 | COCCOc1ncc2nc(N)n(Cc3ccc(CN4CCCC4)cc3)c2n1 [Example 61, 2-(2-methoxyethoxy)-9-(4-(pyrrolidin-1-ylmethyl)benzyl)-7,9-dihydro-8H-purin-8-amine] |
| 0.001 to 1 | > 100 | O=c1[nH]c2cnc(OCCCOC(F)(F)F)nc2n1Cc1ccc(CN2CCCC2)cc1 [Example 50, 9-(4-(pyrrolidin-1-ylmethyl)benzyl)-2-(3-(trifluoromethoxy)propoxy)-7,9-dihydro-8H-purin-8-one] |
